{
  "source": "patent US20230172846A1",
  "about": "“ORAL DISSOLVABLE FILM AND METHOD OF MANUFACTURING AND USING THE SAME” (CURE PHARMACEUTICAL HOLDING CORP., priority 2019, published 2023)",
  "key": {"[1]": {"experiment": "CBD film stability study (% assay of CBD)", "assay_type": "physicochemical"}, "pancreatic cancer": {"tested_on": "pancreatic cancer", "conditions": "in vivo; cited from earlier work"}, "[2]": {"experiment": "Vitamin D3 Oral Thin Film 4 weeks stability study (% assay)", "assay_type": "physicochemical", "conditions": "for % Assay of Vitamin D3: in oral thin film", "source_text": "Vitamin D3 is a highly sensitive Lipophilic active pharmaceutical ingredient (API). It was used as a model drug, formulated using above formulation and, Vitamin D3 Oral Thin Film tested for 4 weeks stability study."}},
  "data": [
    {"molecule": "C=C(C)[C@@H]1CCC(C)=C[C@H]1c1c(O)cc(CCCCC)cc1O", "note": "[CBD, Cannabidiol]", "values": [
      {"measurement": "% Assay of CBD", "setting": "[1]; 25 C./60% RH, T0 Week", "result": 108, "unit": "%"},
      {"measurement": "% Assay of CBD", "setting": "[1]; 25 C./60% RH, T1 Month", "result": 109, "unit": "%"},
      {"measurement": "% Assay of CBD", "setting": "[1]; 25 C./60% RH, T2 Months", "result": 113, "unit": "%"},
      {"measurement": "% Assay of CBD", "setting": "[1]; 25 C./60% RH, T 2 Weeks", "result": 109, "unit": "%"},
      {"measurement": "% Assay of CBD", "setting": "[1]; 25 C./60% RH, T3 Months", "result": 120, "unit": "%"},
      {"measurement": "% Assay of CBD", "setting": "[1]; 40 C./75% RH, T1 Month", "result": 106, "unit": "%"},
      {"measurement": "% Assay of CBD", "setting": "[1]; 40 C./75% RH, T2 Months", "result": 113, "unit": "%"},
      {"measurement": "% Assay of CBD", "setting": "[1]; 40 C./75% RH, T 2 Weeks", "result": 108, "unit": "%"},
      {"measurement": "% Assay of CBD", "setting": "[1]; 40 C./75% RH, T3 Months", "result": 118, "unit": "%"},
      {"measurement": "% Assay of CBD", "setting": "[1]; 40 C./75% RH, T9 Months", "result": 96, "unit": "%"},
      {"measurement": "Stability and protection of the API in the film formulation", "setting": "[1]; T=3M stability", "result": "better stability"},
      {"measurement": "% Assay of CBD", "setting": "[1]; in film formulation, 25 C./60% RH, T1 Month", "result": 109, "unit": "%"},
      {"measurement": "% Assay of CBD", "setting": "[1]; in film formulation, 25 C./60% RH, T2 Months", "result": 113, "unit": "%"},
      {"measurement": "% Assay of CBD", "setting": "[1]; in film formulation, 25 C./60% RH, T 2 Weeks", "result": 109, "unit": "%"},
      {"measurement": "% Assay of CBD", "setting": "[1]; in film formulation, 25 C./60% RH, T3 Months", "result": 120, "unit": "%"},
      {"measurement": "% Assay of CBD", "setting": "[1]; in film formulation, 40 C./75% RH, T1 Month", "result": 106, "unit": "%"},
      {"measurement": "% Assay of CBD", "setting": "[1]; in film formulation, 40 C./75% RH, T2 Months", "result": 113, "unit": "%"},
      {"measurement": "% Assay of CBD", "setting": "[1]; in film formulation, 40 C./75% RH, T 2 Weeks", "result": 108, "unit": "%"},
      {"measurement": "% Assay of CBD", "setting": "[1]; in film formulation, 40 C./75% RH, T3 Months", "result": 118, "unit": "%"},
      {"measurement": "% Assay of CBD", "setting": "[1]; in film formulation, T0 Week", "result": 108, "unit": "%"}
    ]},
    {"molecule": "COc1cc(-c2cc(=O)c3c(O)cc(O)c(CC=C(C)C)c3o2)ccc1O", "note": "[FBL-03G]", "values": [
      {"measurement": "Survival rate of subjects suffering from pancreatic cancer", "setting": "pancreatic cancer", "result": "increase survival rate"}
    ]},
    {"molecule": "C=C1CC[C@H](O)C/C1=C/C=C1\\CCC[C@]2(C)[C@@H]([C@H](C)CCCC(C)C)CC[C@@H]12", "note": "[Vitamin D3]", "values": [
      {"measurement": "Protection and stability of Vitamin D3 in OTF", "setting": "[2]; 4 weeks stability study, high heat and humidity", "result": "significant protection"},
      {"measurement": "% Assay of Vitamin D3", "setting": "[2]; 25 C./60% RH, T 1 Week", "result": 95, "unit": "%"},
      {"measurement": "% Assay of Vitamin D3", "setting": "[2]; 25 C./60% RH, T2 Weeks", "result": 100, "unit": "%"},
      {"measurement": "% Assay of Vitamin D3", "setting": "[2]; 25 C./60% RH, T3 Weeks", "result": 101, "unit": "%"},
      {"measurement": "% Assay of Vitamin D3", "setting": "[2]; 25 C./60% RH, T4 Weeks", "result": 101, "unit": "%"},
      {"measurement": "% Assay of Vitamin D3", "setting": "[2]; 40 C./75% RH, T 1 Week", "result": 98, "unit": "%"},
      {"measurement": "% Assay of Vitamin D3", "setting": "[2]; 40 C./75% RH, T2 Weeks", "result": 92, "unit": "%"},
      {"measurement": "% Assay of Vitamin D3", "setting": "[2]; 40 C./75% RH, T3 Weeks", "result": 91, "unit": "%"},
      {"measurement": "% Assay of Vitamin D3", "setting": "[2]; 40 C./75% RH, T4 Weeks", "result": 93, "unit": "%"},
      {"measurement": "% Assay of Vitamin D3", "setting": "[2]; T0 Week", "result": 100, "unit": "%"}
    ]}
  ]
}
